Data as given in ChEMBL document CHEMBL3785044, “Phenobarbital metabolism in adults and in newborn infants” (Acta Paediatr Scand, 1978).

Columns and labels:
Homo sapiens [1] = test: Apparent drug level in newborn infants (2 patients) at 12 mg/kg, im measured at time zero by gas chromatography; type: ADME, organism-based; conditions: in vivo
[2] = Drug excretion in subject assessed as phenobarbital, p-hydroxyphenobarbital and conjugated p-hydroxyphenobarbital level in urine at 5.21 mg/kg, po measured during 4 week period by gas chromatography; type: ADME, organism-based; conditions: human, in vivo, 672 h
Homo sapiens [3] = test: Apparent drug level in subject at 4.33 mg/kg, po measured at time zero by gas chromatography; type: ADME, organism-based; conditions: in vivo
[4] = Disposition rate constant in subject at 5.21 mg/kg, po by gas chromatography; type: ADME, organism-based; conditions: female, human, in vivo
[5] = Drug excretion in newborn infants (4 patients) assessed as p-hydroxy phenobarbital level in urine at measured during first 8 days by gas chromatography; type: ADME, tissue-based; conditions: human, in vivo, 192 h
[6] = Disposition rate constant in subject at 4.33 mg/kg, po by gas chromatography; type: ADME, organism-based; conditions: male, human, in vivo
Homo sapiens [7] = test: Apparent volume of distribution in male subject at 4.33 mg/kg, po by gas chromatography; type: ADME, organism-based; conditions: in vivo
[8] = Drug excretion in newborn infants (4 patients) assessed as unchanged compound level in urine at measured during first 8 days by gas chromatography; type: ADME; conditions: human, read-out: Drug excretion
Homo sapiens [9] = test: Half life in newborn infants (2 patients) at 12 mg/kg, im by gas chromatography; type: ADME, organism-based; conditions: in vivo
[10] = Half life in subject at 5.21 mg/kg, po by gas chromatography; type: ADME, organism-based; conditions: female, human, in vivo
[11] = Half life in newborn infants at 20.6 mg/kg, po by gas chromatography; type: ADME, organism-based; conditions: human, in vivo
[12] = Disposition rate constant in newborn infants at 11.4 mg/kg, im by gas chromatography; type: ADME, organism-based; conditions: human, in vivo
[13] = Drug excretion in po dosed adult (2 subjects) assessed as unchanged compound level in urine at measured during first 8 days by gas chromatography; type: ADME, organism-based; conditions: human, read-out: Drug excretion
[14] = Half life in subject at 4.33 mg/kg, po by gas chromatography; type: ADME, organism-based; conditions: male, human, in vivo
[15] = Disposition rate constant in newborn infants at 20.6 mg/kg, po by gas chromatography; type: ADME, organism-based; conditions: human, in vivo
Homo sapiens [16] = test: Apparent drug level in newborn infants at 11.4 mg/kg, po measured at time zero by gas chromatography; type: ADME, organism-based; conditions: in vivo
[17] = Drug excretion in subject assessed as phenobarbital, p-hydroxyphenobarbital and conjugated p-hydroxyphenobarbital level in urine at 5.21 mg/kg, po measured during first 2 weeks by gas chromatography; type: ADME, organism-based; conditions: human, in vivo, 336 h
[18] = Drug excretion in subject assessed as phenobarbital, p-hydroxyphenobarbital and conjugated p-hydroxyphenobarbital level in urine at 4.33 mg/kg, po measured during first 2 weeks by gas chromatography; type: ADME, organism-based; conditions: human, in vivo, 336 h
[19] = Half life in newborn infants at 11.4 mg/kg, im by gas chromatography; type: ADME, organism-based; conditions: human, in vivo
[20] = Plasma concentration in subject at 5.21 mg/kg, po measured after 17 days by gas chromatography; type: ADME, organism-based; conditions: female, human
Homo sapiens [21] = test: Apparent drug level in subject at 5.21 mg/kg, po measured at time zero by gas chromatography; type: ADME, organism-based; conditions: in vivo
Homo sapiens [22] = test: Apparent volume of distribution in subject at 5.21 mg/kg, po by gas chromatography; type: ADME, organism-based; conditions: in vivo
Homo sapiens [23] = test: Apparent volume of distribution in newborn infants at 20.6 mg/kg, po by gas chromatography; type: ADME, organism-based; conditions: in vivo
Homo sapiens [24] = test: Disposition rate constant in newborn infants (2 patients) at 12 mg/kg, im by gas chromatography; type: ADME, organism-based; conditions: in vivo
Homo sapiens [25] = test: Apparent drug level in newborn infants at 20.6 mg/kg, po measured at time zero by gas chromatography; type: ADME, organism-based; conditions: in vivo
Homo sapiens [26] = test: Apparent volume of distribution in newborn infants (2 patients) at 12 mg/kg, im by gas chromatography; type: ADME, organism-based; conditions: in vivo
Homo sapiens [27] = test: Apparent volume of distribution in newborn infants at 11.4 mg/kg, im by gas chromatography; type: ADME, organism-based; conditions: in vivo

Structure (SMILES): CCC1(c2ccccc2)C(=O)NC(=O)NC1=O [PHENOBARBITAL]
- Drug uptake (Homo sapiens [1]): 18.1 µg/mL
- Drug excretion [2]: 75%
- Drug uptake (Homo sapiens [3]): 9.3 µg/mL
- k el [4]: 1.64e-06 s⁻¹
- Drug excretion [5]: 10%
- k el [6]: 2.28e-06 s⁻¹
- Vd(app) (Homo sapiens [7]): 0.47 L/kg
- dose excreted at 192 h [8]: 17%
- t1/2 (Homo sapiens [9]): 61 h
- half-life [10]: 117 h
- half-life [11]: 83 h
- k el [12]: 1.61e-06 s⁻¹
- dose excreted at 192 h [13]: 16%
- half-life [14]: 84 h
- k el [15]: 2.33e-06 s⁻¹
- Drug uptake (Homo sapiens [16]): 17.8 µg/mL
- Drug excretion [17]: 65%
- Drug excretion [18]: 35%
- half-life [19]: 119 h
- concentration at 408 h [20]: 0.5 µg/mL
- Drug uptake (Homo sapiens [21]): 10 µg/mL
- Vd(app) (Homo sapiens [22]): 0.52 L/kg
- Vd(app) (Homo sapiens [23]): 0.98 L/kg
- K (Homo sapiens [24]): 0.004 h⁻¹
- Drug uptake (Homo sapiens [25]): 21 µg/mL
- Vd(app) (Homo sapiens [26]): 0.59 L/kg
- Vd(app) (Homo sapiens [27]): 0.99 L/kg
